pIC50: −log10 of the molar value.
Tests used:
[1] = target: T1, PDE1C (Homo sapiens, UniProt Q14123); experiment: PDE enzymatic activity assay (SPA), PDE1C, cAMP as substrate; assay type: biochemical; conditions: ratio IC50 PDE1C / IC50 PDE9A; for illustrative purposes
T1 construct: made in house; host or cells: SF9 insect cells (crude lysate used as enzyme source)
Experimental: (§1) The PDE enzymatic activity assays were run as SPA, in general according to the protocol of the manufacturer (Amersham Biosciences, product number: TRKQ 7100). As enzyme source, lysate (PBS with 1% Triton X-100 supplemented with protease inhibitors, cell debris removed by centrifugation at 13.000 rpm for 30 min) of SF 9 cell expressing the human PDE of interest was used. The total protein amount included in the assay varied upon infection and production efficacy of the SF9 cells and lay in the range of […].
(§2) In general, the assay conditions were as follows: • total assay volume: 40 μl • protein amount: 0.1-50 ng • substrate concentration (cGMP or cAMP): 20 nM; ˜1 mCi/l • incubation time: 60 min at room temperature • final DMSO concentration: 1%
(§3) The assays were run in 384-well format. The test reagents as well as the enzyme and the substrate were diluted in assay buffer. The assay buffer contained 50 mM Tris, 8.3 mM MgCl2, 1.7 mM EGTA, 0.1% BSA, 0.05% Tween 20; the pH of assay buffer was adjusted to 7.5. In case activity of PDE1C was analysed, 50 nM Calmodulin and 3 mM CaCl2 were included in the assay buffer. In case PDE9 activity was analyzed, the reaction was stopped by applying a PDE9 specific inhibitor (e.g. compounds according to WO2004/099210). PDE1C was analysed with cAMP as substrate, and PDE9 was analyzed with cGMP as substrate.
(§4) IC50 can be calculated in a conventional way, eventually with the help of GraphPadPrism or other suited software setting the positive control as 100 and the negative control as 0. For calculation of IC50 usually 8 dilutions of the test compound ([…]) are to be selected and tested following the aforementioned protocol.

[2] = target: T2, PDE9A (Homo sapiens, UniProt O76083); experiment: PDE enzymatic activity assay (SPA), PDE9A; assay type: biochemical; parameters: made in house; host or cells: SF9 insect cells (crude lysate used as enzyme source); conditions: cGMP substrate, for illustrative purposes; for inhibition at 10 µM: 10 micromolar; for pIC50: given as ranges
T2 sequence (O76083 whole entry): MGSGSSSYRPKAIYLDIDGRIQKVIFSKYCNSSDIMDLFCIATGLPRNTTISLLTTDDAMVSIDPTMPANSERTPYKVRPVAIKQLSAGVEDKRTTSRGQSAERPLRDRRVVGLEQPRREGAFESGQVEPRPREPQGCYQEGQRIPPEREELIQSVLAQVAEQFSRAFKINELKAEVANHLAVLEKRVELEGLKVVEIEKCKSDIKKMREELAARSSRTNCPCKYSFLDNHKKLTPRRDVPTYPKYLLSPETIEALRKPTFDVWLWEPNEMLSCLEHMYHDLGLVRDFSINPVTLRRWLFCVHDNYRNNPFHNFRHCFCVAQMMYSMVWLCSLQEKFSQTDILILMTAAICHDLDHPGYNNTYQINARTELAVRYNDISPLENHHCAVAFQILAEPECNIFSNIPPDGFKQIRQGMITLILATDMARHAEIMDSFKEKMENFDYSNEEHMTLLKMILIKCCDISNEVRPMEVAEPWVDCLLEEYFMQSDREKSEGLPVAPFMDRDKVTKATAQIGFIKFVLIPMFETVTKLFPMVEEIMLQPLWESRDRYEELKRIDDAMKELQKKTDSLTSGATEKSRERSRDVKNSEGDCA
Experimental: as §1, §2, §3
Calculation of % Inhibition:
The activity of the positive control (minus the negative control=background) is set to 100% and activity in the presence of test compound is expressed relative to these 100%.
Within this setting, an inhibition above 100% might be possible due to the nature of the variation of the positive control within the assay, however, in this case the reported % inhibition had been adjusted to 100%.
as §4

[3] = target: T2, PDE9A; conditions: concentrations of up to 100 [mu]M; cited from earlier work

| Selectivity = IC50 PDE 1C/IC50 PDE9A (both nanomolar) [1] | inhibition at 10 µM [2] [%] | pIC50 [2] | SMILES | inhibition on the isolated enzyme (human PDE9A) [3] |
| --- | --- | --- | --- | --- |
| 24 | 58 | < 6.30 | O=c1[nH]c(Cc2ccccc2OC(F)(F)F)nc2c1cnn2-c1c(Cl)cccc1Cl [Example 25, 1-(2,6-Dichloro-phenyl)-6-(2-trifluoromethoxy-benzyl)-1,5-dihydro-pyrazolo[3,4-d]pyrimidin-4-one] | – |
| 24 | 51 | < 6.30 | O=c1[nH]c(Cc2ccccc2OC(F)(F)F)nc2c1cnn2-c1cccc(F)c1 [Example 26, 1-(3-Fluoro-phenyl)-6-(2-trifluoromethoxy-benzyl)-1,5-dihydro-pyrazolo[3,4-d]pyrimidin-4-one] | – |
| 14 | 67 | < 6.30 | CCOc1cc(Cl)c(-n2ncc3c(=O)[nH]c(Cc4ccccc4OC(F)(F)F)nc32)cc1C [Example 27, 1-(2-Chloro-4-ethoxy-5-methyl-phenyl)-6-(2-trifluoromethoxy-benzyl)-1,5-dihydro-pyrazolo [3,4-d]pyrimidin-4-one] | – |
| 8 | 96 | 6.30 to 8.00 | Cc1c(F)cccc1-n1ncc2c(=O)[nH]c(Cc3ccccc3OC(F)(F)F)nc21 [Example 28, 1-(3-Fluoro-2-methyl-phenyl)-6-(2-trifluoromethoxy-benzyl)-1,5-dihydro-pyrazolo[3,4-d]pyrimidin-4-one] | – |
| 9 | 89 | 6.30 to 8.00 | O=c1[nH]c(Cc2ccccc2OC(F)(F)F)nc2c1cnn2-c1cccc(Cl)c1Cl [Example 29, 1-(2,3-Dichloro-phenyl)-6-(2-trifluoromethoxy-benzyl)-1,5-dihydro-pyrazolo[3,4-d]pyrimidin-4-one] | – |
| 8 | 95 | 6.30 to 8.00 | COc1c(F)cccc1-n1ncc2c(=O)[nH]c(Cc3ccccc3OC(F)(F)F)nc21 [Example 30, 1-(2-Methoxy,3-fluoro-phenyl)-6-(2-trifluoromethoxy-benzyl)-1,5-dihydro-pyrazolo[3,4-d]pyrimidin-4-one] | – |
| 55 | 101 | 6.30 to 8.00 | O=C(O)c1cccc(-n2ncc3c(=O)[nH]c(Cc4ccccc4OC(F)(F)F)nc32)c1 [Example 30-1, 1-(3-Carbox-phenyl)-6-(2-trifluoromethoxy-benzyl)-1,5-dihydro-pyrazolo[3,4-d]pyrimidin-4-one] | – |
| 55 | 100 | 6.30 to 8.00 | O=C(O)c1ccc(Cl)c(-n2ncc3c(=O)[nH]c(Cc4ccccc4OC(F)(F)F)nc32)c1 [Example 30-2, 1-(2-Chloro-5-carbox-phenyl)-6-(2-trifluoromethoxy-benzyl)-1,5-dihydro-pyrazolo[3,4-d]pyrimidin-4-one] | – |
| 14 | 100 | 6.30 to 8.00 | O=c1[nH]c(Cc2ccccc2OC(F)(F)F)nc2c1cnn2-c1cc(O)ccc1Cl [Example 30-3, 1-(2-Chloro-5-hydroxy-phenyl)-6-(2-trifluoromethoxy-benzyl)-1,5-dihydro-pyrazolo[3,4-d]pyrimidin-4-one] | – |
| 3 | 99 | 6.30 to 8.00 | O=c1[nH]c(Cc2ccccc2OC(F)(F)F)nc2c1cnn2-c1cccc(F)c1F [Example 30-4, 1-(2,3-Difluoro-phenyl)-6-(2-trifluoromethoxy-benzyl)-1,5-dihydro-pyrazolo[3,4-d]pyrimidin-4-one] | – |
| 26 | 97 | 6.30 to 8.00 | CC(=O)Nc1cccc(-n2ncc3c(=O)[nH]c(Cc4ccccc4OC(F)(F)F)nc32)c1 [Example 30-5, 1-(3-Acetamido-phenyl)-6-(2-trifluoromethoxy-benzyl)-1,5-dihydro-pyrazolo[3,4-d]pyrimidin-4-one] | – |
| 8 | 82 | < 6.30 | O=c1[nH]c(Cc2ccccc2OC(F)(F)F)nc2c1cnn2-c1ccc(F)cc1O [Example 31, 1-(2-Hydroxy,4-fluoro-phenyl)-6-(2-trifluoromethoxy-benzyl)-1,5-dihydro-pyrazolo[3,4-d]pyrimidin-4-one] | – |
| 11 | 91 | 6.30 to 8.00 | O=c1[nH]c(Cc2ccccc2OC(F)(F)F)nc2c1cnn2-c1cnccc1C(F)(F)F [Example 32, 6-(2-Trifluoromethoxy-benzyl)-1-(4-trifluoromethyl-pyridin-3-yl)-1,5-dihydro-pyrazolo[3,4-d]pyrimidin-4-one] | – |
| 4 | 89 | 6.30 to 8.00 | O=c1[nH]c(Cc2ccccc2OC(F)(F)F)nc2c1cnn2-c1cccnc1 [Example 33, 6-(2-Trifluoromethoxy-benzyl)-1-(pyridin-3-yl)-1,5-dihydro-pyrazolo[3,4-d]pyrimidin-4-one] | – |
| 10 | 93 | 6.30 to 8.00 | O=C(c1ccc(Cl)c(-n2ncc3c(=O)[nH]c(Cc4ccccc4OC(F)(F)F)nc32)c1)N1CCCCC1 [Example 35, 1-[2-Chloro-5-(piperidine-1-carbonyl)-phenyl]-6-(2-trifluoromethoxy-benzyl)-1,5-dihydro-pyrazolo[3,4-d]pyrimidin-4-one] | – |
| 54 | 98 | 6.30 to 8.00 | CN(C)C(=O)c1ccc(Cl)c(-n2ncc3c(=O)[nH]c(Cc4ccccc4OC(F)(F)F)nc32)c1 [Example 36, 1-[2-Chloro-5-(dimethylamino-carbonyl)-phenyl]-6-(2-trifluoromethoxy-benzyl)-1,5-dihydro-pyrazolo[3,4-d]pyrimidin-4-one] | – |
| 27 | 99 | 6.30 to 8.00 | O=C(c1ccc(Cl)c(-n2ncc3c(=O)[nH]c(Cc4ccccc4OC(F)(F)F)nc32)c1)N1CCOCC1 [Example 37, 1-[2-Chloro-5-(N-morpholino-carbonyl)-phenyl]-6-(2-trifluoromethoxy-benzyl)-1,5-dihydro-pyrazolo[3,4-d]pyrimidin-4-one] | – |
| 9 | 92 | < 6.30 | O=C(c1cccc(-n2ncc3c(=O)[nH]c(Cc4ccccc4OC(F)(F)F)nc32)c1)N1CCOCC1 [Example 38, 1-[3-(N-morpholino-carbonyl)-phenyl]-6-(2-trifluoromethoxy-benzyl)-1,5-dihydro-pyrazolo[3,4-d]pyrimidin-4-one] | – |
| 4 | 97 | 6.30 to 8.00 | O=c1[nH]c(Cc2ccccc2OC(F)(F)F)nc2c1cnn2-c1ncc(F)cc1F [Example 39, 6-(2-Trifluoromethoxy-benzyl)-1-(3,5-difluoro-pyridin-2-yl)-1,5-dihydro-pyrazolo[3,4-d]pyrimidin-4-one] | – |
| – | – | – | CC(=O)Nc1ccc(-c2c[nH]c(=O)cn2)cc1 [SKF94120] | no inhibition |
| – | – | – | OCCN(CCO)c1nc(N2CCCCC2)c2nc(N(CCO)CCO)nc(N3CCCCC3)c2n1 [dipyridamole] | no inhibition |
| – | – | – | COc1ccc(C2CNC(=O)C2)cc1OC1CCCC1 (stereo not shown) [rolipram] | no inhibition |
| – | – | – | CCOC(=O)C1=C[C@]2(CC)CCCN3CCc4c(n1c1ccccc41)[C@@H]32 [vinpocetine] | no inhibition |
